Literature values as cited in US20240139293A1, “Compositions and Methods for Enhancing Anti-Viral Therapies” (XORTX THERAPEUTICS, INC., priority 2021, published 2024).

System: SARS-CoV-2
Conditions: cited study: SARS-CoV-2 replication in vivo and in vitro

## CCCN(CCC)S(=O)(=O)c1ccc(C(=O)O)cc1 [probenecid]
  viral load due to Coronavirus: can decrease viral load
